The source of these data is ChEMBL document CHEMBL3580544, “Interaction of α-Hexylcinnamaldehyde with a Biomembrane Model: A Possible MDR Reversal Mechanism” (J Nat Prod, 2015).

The source made the active and inactive calls. The calls are words filed in the database; no cut-off is given here.

The nature of series [1]: Induction of thermotropic behavior changes in dimyristoylphosphatidylcholine multilamellar vesicles assessed as changes in pre-transition peak at 0.015 to 0.15 molar fraction by differential scanning calorimetry. (DSC measures the heat that a sample takes up or gives off during a temperature scan.)
A short description of series [2]: Induction of thermotropic behavior changes in dimyristoylphosphatidylcholine multilamellar vesicles assessed as changes in main transition peak at 0.015 to 0.15 molar fraction by differential scanning calorimetry.
The nature of series [3]: Induction of thermotropic behavior changes in dimyristoylphosphatidylcholine multilamellar vesicles assessed as reduction in transition temperature at 0.015 to 0.15 molar fraction by differential scanning calorimetry.
A short description of series [4]: Induction of thermotropic behavior changes in dimyristoylphosphatidylcholine multilamellar vesicles assessed as reduction in enthalpy of phase transition at 0.015 to 0.15 molar fraction by differential scanning calorimetry.
Series [5] can be described thus: Induction of thermotropic behavior changes in dimyristoylphosphatidylcholine multilamellar vesicles assessed as reduction in cooperativity among phospholipid molecules by measuring peak width at half height at 0.015 to 0.15 molar fraction by differential scanning calorimetry.
Series [6] is described as follows: Induction of thermotropic behavior changes in dimyristoylphosphatidylcholine multilamellar vesicles assessed as reduction in enthalpy of phase transition at 0.015 molar fraction by differential scanning calorimetry. Set-up: scale not given: the % may be the effect or the level left.
Series [7] can be described thus: Induction of thermotropic behavior changes in dimyristoylphosphatidylcholine multilamellar vesicles assessed as reduction in enthalpy of phase transition at 0.03 molar fraction by differential scanning calorimetry. Set-up: scale not given: the % may be the effect or the level left.
Series [8] in a line: Induction of thermotropic behavior changes in dimyristoylphosphatidylcholine multilamellar vesicles assessed as reduction in enthalpy of phase transition at 0.045 molar fraction by differential scanning calorimetry. Set-up: scale not given: the % may be the effect or the level left.
Series [9] can be described thus: Induction of thermotropic behavior changes in dimyristoylphosphatidylcholine multilamellar vesicles assessed as reduction in enthalpy of phase transition at 0.06 molar fraction by differential scanning calorimetry. Set-up: scale not given: the % may be the effect or the level left.
Series [10] can be described thus: Induction of thermotropic behavior changes in dimyristoylphosphatidylcholine multilamellar vesicles assessed as reduction in enthalpy of phase transition at 0.09 molar fraction by differential scanning calorimetry. Set-up: scale not given: the % may be the effect or the level left.
The subject of series [11] is Lipid bilayer. The experiment in a line: Induction of thermotropic behavior changes in dimyristoylphosphatidylcholine multilamellar vesicles assessed as reduction in enthalpy of phase transition at 0.12 molar fraction by differential scanning calorimetry. Set-up: scale not given: the % may be the effect or the level left.
Series [12] can be described thus: Induction of thermotropic behavior changes in dimyristoylphosphatidylcholine multilamellar vesicles assessed as reduction in enthalpy of phase transition at 0.15 molar fraction by differential scanning calorimetry. Set-up: scale not given: the % may be the effect or the level left.
Series [13] has as its system Lipid bilayer. The series is described as follows: Binding affinity to external surface of dimyristoylphosphatidylcholine multilamellar vesicles at 0.09 molar fraction by differential scanning calorimetry.
A short description of series [14]: Drug absorption in dimyristoylphosphatidylcholine multilamellar vesicles at 0.09 molar fraction by differential scanning calorimetry. It counts as physicochemical.
Series [15] in a line: Drug absorption in dimyristoylphosphatidylcholine multilamellar vesicles at 0.045 molar fraction using lipophilic medium as carrier by differential scanning calorimetry. Conditions: octanol/water. Type of series: physicochemical.
Series [16] can be described thus: Pro-oxidant activity in lipophilic medium containing linoleic acid by crocin bleaching assay. It counts as functional.
The nature of series [17]: Pro-oxidant activity in hydrophilic medium by crocin bleaching assay. Type of series: functional.
A short description of series [18]: Antioxidant activity assessed as inhibition of AAPH-induced crocin oxidation in hydrophilic medium at 5 to 500 uM by crocin bleaching assay. Type of series: physicochemical.
A short description of series [19]: Antioxidant activity assessed as inhibition of AAPH-induced crocin oxidation at 5 to 500 uM in lipophilic medium containing linoleic acid by crocin bleaching assay. Type of series: physicochemical.

For the molecule `CCCCCC/C(C=O)=C\c1ccccc1`, the outcome (in series [1]; in [2]; with Lipid bilayer [13]) was Active. Moreover, the Activity entry was “Dose-dependent effect” in series [3]; “Dose-dependent effect” in series [4]; “Dose-dependent effect” in [5]; 95% in [6]; 96% in series [7]; 98.3% in [8]. Besides, the Activity in [9] was 91.7%; in [10], 79.5%; with Lipid bilayer [11], 71.2%; in series [12], 74.1%; in [18], “Active”; in series [19], “Active”. The Drug uptake entry in [14] and in series [15] was “Active” in each case. The outcome in [16] and in series [17] was inactive.
Regarding `Cc1c(C)c2c(c(C)c1O)CCC(C)(C(=O)O)O2` (stereo unspecified) [TROLOX], the result in series [18] and in [19] was Active.
